Experimental data: US4522946A, “Dioxy hexahydrobenzo[6,7]cyclohepta[1,2,3-de]isoquinoline derivatives useful as neuroleptic agents” (Ayerst, McKenna & Harrison, Inc., priority 1983, dated 1985)
Where a name gives a salt, the structure may show the parent alone.

Legend:
[1] = tested on: conditioned avoidance response; test: conditioned avoidance response test (CAR), neuroleptic action; format: in vivo; conditions: intraperitoneal, mg per kg body weight; for ED50: ip, read-out: CAR, ED50 (dose which caused a 50% failure in avoidance response)
[2] = tested on: tremorine-induced tremors in mice; test: antagonism of tremorine-induced tremors (ITIT), lack of cataleptic activity; format: in vivo; conditions: intraperitoneal, mg per kg body weight; for ED50: Mus musculus, ip, read-out: ITIT, ED50 (dose which caused a 50% inhibition of tremorine induced tremors)
[3] = Sayers and Amsler 1977; cited from earlier work

Row | SMILES | CAR, ED50 (dose which caused a 50% failure in avoidance response) [1] | ITIT, ED50 (dose which caused a 50% inhibition of tremorine induced tremors) [2] | ED50 [1] [mg/kg] | ED50 [2] [mg/kg] | neuroleptic action without the extrapyramidal side effects (in words) [3]
1 | Br.CC[C@H]1c2c(O)c(O)cc3c2[C@H](CN1C)c1ccccc1CC3 (relative stereo) [Example 23, (3,12b-trans)-3-ethyl-2-methyl-1,2,3,7,8,12b-hexahydrobenzo[6,7]cyclohepta[1,2,3-de]isoquinoline-4,5-diol hydrobromide] | 1.5 ± 0.4 mg/kg, i.p. | 18 ± 7.6 mg/kg, i.p. |  |  | 
2 | CC[C@H]1c2cc(O)c(O)c3c2[C@@H](CN1C)c1ccccc1CC3 (relative stereo) [Example 32, (3,12b-trans)-3-ethyl-2-methyl-1,2,3,7,8,12b-hexahydrobenzo[6,7]-cyclohepta[1,2,3-de]isoquinoline-5,6-diol hydrobromide] |  |  | 4.2 ± 0.4 | 21 ± 1.6 | 
3 | CN1C[C@H]2c3ccccc3CCc3c(O)c(O)cc(c32)[C@@H]1Cc1ccccc1 (relative stereo) [Example 33, (3,12b-trans)-2-methyl-3-(phenylmethyl)-1,2,3,7,8,12b-hexahydrobenzo[6,7]-cyclohepta[1,2,3-de]isoquinoline-5,6-diol hydrobromide] |  |  | 2 ± 0.2 | 9.2 ± 7.2 | 
4 | CC[C@H]1c2c(O)c(OC)cc3c2[C@@H](CN1C)c1ccccc1CC3 (relative stereo) [Example 44, (3,12b-trans)-3-ethyl-5-methoxy-2-methyl-1,2,3,7,8,12b-hexahydrobenzo[6,7]-cyclohepta[1,2,3-de]isoquinolin-4-ol] | 3.0 ± 0.8 mg/kg, i.p. | 6.8 ± 2.0 mg/kg, i.p. |  |  | 
5 | Br.CC1c2c(O)c(O)cc3c2C(CN1C)c1ccccc1CC3 (stereo not drawn) [Example 22, (3,12b-trans)-2,3-dimethyl-1,2,3,7,8,12b-hexahydrobenzo[6,7]cyclohepta[1,2,3-de]isoquinoline-4,5-diol hydrobromide] | 4.4 ± 2.0 mg/kg, i.p. | 13 ± 10.4 mg/kg, i.p. |  |  | 
6 | Br.CCCC1c2c(O)c(O)cc3c2C(CN1C)c1ccccc1CC3 (stereo not drawn) [Example 24, (3,12b-trans)-2-methyl-3-propyl-1,2,3,7,8,12b-hexahydrobenzo[6,7]cyclohepta[1,2,3-de]isoquinoline-4,5-diol hydrobromide] | 4.4 ± 1.4 mg/kg, i.p. | 11 ± 4.3 mg/kg, i.p. |  |  | 
7 | Br.CC(C)C1c2c(O)c(O)cc3c2C(CN1C)c1ccccc1CC3 (stereo not drawn) [Example 25, (3,12b-trans)-2-methyl-3-(1-methylethyl)-1,2,3,7,8,12b-hexahydrobenzo[6,7]cyclohepta[1,2,3-de]isoquinoline-4,5-diol hydrobromide] | 2.4 ± 0.6 mg/kg, i.p. | 17.5 ± 6.0 mg/kg, i.p. |  |  | 
8 | Br.CN1CC2c3ccccc3CCc3cc(O)c(O)c(c32)C1Cc1ccccc1 (stereo not drawn) [Example 26, (3,12b-trans)-2-metyl-3-(phenylmethyl)-1,2,3,7,8,12b-hexahydrobenzo[6,7]cyclohepta[1,2,3-de]isoquinoline-4,5-diol hydrobromide] | 1.6 ± 0.3 mg/kg, i.p. | 22 ± 5.7 mg/kg, i.p. |  |  | 
9 | COc1cc2c3c(c1O)C(Cc1ccccc1)N(C)CC3c1ccccc1CC2 (stereo not drawn) [Example 37, (3,12b-trans)-5-Methoxy-2-methyl-3-(phenylmethyl)-1,2,3,7,8,12b-hexahydrobenzo[6,7]-cyclohepta[1,2,3-de]isoquinolin-4-ol] | 5.4 ± 1.8 mg/kg, i.p. | 8.2 ± 2.4 mg/kg, i.p. |  |  | 
10 | CN1CCN(C2=Nc3cc(Cl)ccc3Nc3ccccc32)CC1 [clozapine] |  |  |  |  | have shown this unusual pharmacological profile
